# Where two headings read alike, the source gives them in different places.
# Tests used:
# [1] = biological target: T1, human FPPS (Homo sapiens, UniProt P14324); assay: human FPPS enzyme inhibition; type: biochemical; conditions: for IC50: Table 9, read-out: H. sapiens FPPS IC50
# T1 construct: made in house
# T1 sequence (P14324 1-419): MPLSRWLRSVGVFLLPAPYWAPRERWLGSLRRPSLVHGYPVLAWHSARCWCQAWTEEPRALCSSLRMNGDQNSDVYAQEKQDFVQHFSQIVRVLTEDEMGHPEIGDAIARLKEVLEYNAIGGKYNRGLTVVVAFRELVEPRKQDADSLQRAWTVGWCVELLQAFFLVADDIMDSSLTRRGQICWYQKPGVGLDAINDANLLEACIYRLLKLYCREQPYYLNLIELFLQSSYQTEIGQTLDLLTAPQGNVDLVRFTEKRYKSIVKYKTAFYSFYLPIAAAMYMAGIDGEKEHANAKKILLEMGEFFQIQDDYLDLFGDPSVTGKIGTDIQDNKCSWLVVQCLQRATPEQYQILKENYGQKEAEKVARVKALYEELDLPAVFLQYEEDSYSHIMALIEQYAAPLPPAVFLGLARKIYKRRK
# Excerpt: (§1) To test our polypharmaceutical hypothesis, we expressed three enzymes: human FPPS, GGPPS and DPPS, and tested each for their inhibition by a series of bisphosphonates.
# [2] = biological target: T2, human recombinant geranylgeranyl diphosphate synthase (hGGPPS) (Homo sapiens, UniProt O95749); assay: Human recombinant GGPPS inhibition (radiometric assay); type: biochemical; conditions: Table 1, experimental; for Ki: read-out: GGPPS pKi (converted)
# T2 construct: made in house
# T2 sequence (O95749 1-300): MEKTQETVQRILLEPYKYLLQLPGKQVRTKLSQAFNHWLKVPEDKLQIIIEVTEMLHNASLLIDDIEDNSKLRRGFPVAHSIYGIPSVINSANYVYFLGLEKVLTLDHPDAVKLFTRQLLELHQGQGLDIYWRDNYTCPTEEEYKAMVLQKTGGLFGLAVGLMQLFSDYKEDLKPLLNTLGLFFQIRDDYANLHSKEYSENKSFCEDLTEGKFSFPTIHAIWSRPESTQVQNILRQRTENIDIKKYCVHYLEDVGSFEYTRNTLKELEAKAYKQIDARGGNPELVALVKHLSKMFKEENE
# Description: as §1
# Human recombinant GGPPS inhibition. The purification of human recombinant geranylgeranyl diphosphate synthase (hGGPPS) followed the protocol reported previously^2. GGPPS inhibition by bisphosphonates was determined using the radiometric assay reported previously^2 with slight modification. […] IPP and incubated at 37° C. for 20 min. The reaction was terminated by the addition of 75 μL of HCl/MeOH. Following a second 20 min incubation at 37° C. to effectively hydrolyze the allylic pyrophosphates, the reaction mixtures were neutralized by the addition of 75 μL of 6 N NaOH and extracted with 500 μL of hexane. 200 μL of the organic phase was transferred to a scintillation vial for counting. The IC50 values were obtained by fitting the data to the dose-response curve in Origin 6.1 (OriginLab Corp., Northampton, Mass., www.OriginLab.com).
# [3] = biological target: T3, human DPPS (Homo sapiens, UniProt Q5T2R2); assay: human DPPS enzyme inhibition; type: biochemical; conditions: Table 1, experimental; for Ki: read-out: DPPS_pKi (converted)
# T3 construct: made in house
# T3 sequence (Q5T2R2 1-415): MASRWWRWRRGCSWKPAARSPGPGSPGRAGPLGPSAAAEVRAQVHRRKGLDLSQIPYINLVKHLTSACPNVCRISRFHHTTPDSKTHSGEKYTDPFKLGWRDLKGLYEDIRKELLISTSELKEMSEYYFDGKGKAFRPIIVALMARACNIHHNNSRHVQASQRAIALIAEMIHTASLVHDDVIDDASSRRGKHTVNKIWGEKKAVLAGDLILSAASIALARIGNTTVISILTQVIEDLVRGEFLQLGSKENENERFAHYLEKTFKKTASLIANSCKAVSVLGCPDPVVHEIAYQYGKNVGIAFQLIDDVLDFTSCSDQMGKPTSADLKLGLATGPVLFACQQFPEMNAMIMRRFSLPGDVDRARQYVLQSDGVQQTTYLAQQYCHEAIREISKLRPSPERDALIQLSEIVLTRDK
# T3 sequence (Q86YH6 1-399 partner): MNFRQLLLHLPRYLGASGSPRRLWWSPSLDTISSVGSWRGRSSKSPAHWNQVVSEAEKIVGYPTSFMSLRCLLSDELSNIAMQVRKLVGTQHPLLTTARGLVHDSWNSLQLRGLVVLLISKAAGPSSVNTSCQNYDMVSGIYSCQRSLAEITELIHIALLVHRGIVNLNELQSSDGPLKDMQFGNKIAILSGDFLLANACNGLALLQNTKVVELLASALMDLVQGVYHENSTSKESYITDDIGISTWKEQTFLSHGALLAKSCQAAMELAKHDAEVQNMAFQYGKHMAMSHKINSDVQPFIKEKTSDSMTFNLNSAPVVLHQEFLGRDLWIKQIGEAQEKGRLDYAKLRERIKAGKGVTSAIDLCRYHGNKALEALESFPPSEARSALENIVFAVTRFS
# Excerpt: as §1
# [4] = test system: SF-268 (central nervous system glioblastoma); assay: SF-268 cell growth inhibition (MTT); type: cell-based, human; conditions: Table 1, experimental; for IC50: Homo sapiens, SF-268, read-out: SF-268 pIC50 (converted)
# Excerpt: (§2) Cell Growth Inhibition Assays. […] A broth microdilution method was used to determine IC50 values for growth inhibition by each bisphosphonate. […] NBPs were typically initially dissolved in H2O (0.01 M) while NNBPs were typically dissolved in DMSO (0.01 M).
# (§3) GraphPad PRISM® version 4.0 software for windows (GraphPad Software Inc., San Diego, Calif., www.graphpad.com) was used to fit the data to a rectangular hyperbolic function: I=(ImaxC)/(IC50+C); […]
# [5] = test system: MCF-7 (breast adenocarcinoma); assay: MCF-7 cell growth inhibition (MTT), incl. FOH/GGOH rescue; type: cell-based, human; conditions: for IC50: Homo sapiens, MCF7
# Excerpt: as §2
# GraphPad PRISM® version 4.0 software for windows (GraphPad Software Inc., San Diego, Calif., www.graphpad.com) was used to fit the data to a rectangular hyperbolic function: I=(ImaxC)/(IC50+C);
# For the “rescue” experiments, stock solutions of FOH or GGOH were prepared (in ethanol) and the requisite amounts added to the incubation media to produce a fixed 20 μM concentration.
# [6] = test system: NCI-H460 (lung large cell); assay: NCI-H460 cell growth inhibition (MTT); type: cell-based, human; conditions: Table 1, experimental; for IC50: Homo sapiens, NCI-H460, read-out: NCI-H460 pIC50 (converted)
# Excerpt: as §2, §3
# [7] = test system: Vγ2Vδ2 T cells; assay: γδ T cell activation (TNF-α release and proliferation); type: cell-based, human; conditions: for γδ T Cell Avg pED50 (M) / EC50: Table 2, -log10(value, M); for EC50: Homo sapiens, T-cell, read-out: γδ T Cell Avg pED50 (converted)
# Description: γδ T Cell Assays. Vγ2Vδ2 T cell TNF-α release and proliferation were performed basically as described previously^1. Briefly, to measure bioactivity for Vγ2Vδ2 T cells, the CD4^+ JN.24, CD4^+ HF.2, CD8αα^+ 12G12, or the CD4^−8^− HD.108 Vγ2Vδ2 T cell clones were stimulated with phosphoantigens in the presence of CP.EBV (an EBV transformed B cell line) for CD4^+ clones or Va-2 (a transformed fibroblast) for CD8αα^+ and CD4^−8^− clones. CP.EBV and Va-2 were fixed with 0.05% glutaraldehyde (EM grade, Sigma, Mo.) for use as APCs. […] Curve fitting minima for each experiment (e.g. TNF-α release from JN.24 cells) were determined using the Global Fitting technique, as implemented in Prism 4.0. Curve fitting maxima were optimized for each individual compound without the use of any constraints.
# [8] = test system: T. brucei FPPS; assay: T. brucei FPPS inhibition; type: biochemical, Trypanosoma brucei; conditions: Table 9
# [9] = test system: MDA-MB-231 cells; assay: Matrigel invasion assay; type: cell-based, human
# Excerpt: Tumor cell invasiveness and in vivo results. […] .
# [10] = Table 1, experimental, read-out: MCF-7 pIC50 (converted)
# [11] = Table 2, -log10(value, M), read-out: MCF-7 Cell pIC50 (converted)
Structure (SMILES),"FPPS pKi (M) ([1]; Table 1, experimental)",DPPS pKi [3],SF-268 pIC50 (M) [4] [M],"MCF-7 pIC50 (M) ([5]; Table 1, experimental)","MCF-7 Cell pIC50 (M) ([5]; Table 2, -log10(value, M))",NCI-H460 pIC50 (M) [6] [M],γδ T Cell Avg pED50 (M) [7] [M],IC50 [1] [µM],IC50 [8] [µM],other results
O=P([O-])(O)C(C[n+]1cccc(-c2ccccc2)c1)P(=O)(O)O (centres unmarked) [BPH-472],8.6,7.1,4.3,4.4,4.46,4.3,4.07,–,–,GGPPS pKi (M) [2]: 6.6 M
"C[S+](C)CC(O)(P(=O)(O)O)P(=O)(O)O [BPH-527, (2-Hydroxy-2,2-bis-phosphono-ethyl)-dimethyl-sulfonium]",–,–,–,–,3.36,–,3.87,1.03,0.78,–
C[P+](C)(C)CC(O)(P(=O)([O-])O)P(=O)(O)O (centres unmarked) [BPH-536],–,–,–,–,3.24,–,3.72,12.1,26.1,–
C[S+](C)CCC(O)(P(=O)([O-])O)P(=O)(O)O (centres unmarked) [BPH-540],–,–,–,–,2.68,–,3.59,9,11.3,–
C[As+](C)(C)CC(O)(P(=O)([O-])O)P(=O)(O)O (centres unmarked) [BPH-560],–,–,–,–,2.71,–,3.37,1.13,275,–
CCCCCCCCc1ccc[n+](CC(P(=O)([O-])O)P(=O)(O)O)c1 (centres unmarked) [BPH-637],–,–,–,–,–,–,–,–,–,"Ki [2]: 0.0398 µM; Ki [3]: 0.501 µM; IC50 [4]: 1.26 µM; IC50 [5, 10]: 0.251 µM; IC50 [5, 11]: 0.219 µM; IC50 [6]: 2 µM; EC50 [7]: 12.6 µM"
N=C(N)NCC(O)(P(=O)(O)O)P(=O)(O)O [BPH-678],7.9,7.4,4.6,4.7,5.37,4.7,4.22,1.25,25.6,–
O=P([O-])(O)C(O)(C[n+]1cccc(-c2c[nH]cn2)c1)P(=O)(O)O (centres unmarked) [BPH-679],8.2,6,4.5,4.4,4.65,4.3,3.34,–,–,GGPPS pKi (M) [2]: 5.0 M
CCCCC[S+](C)CC(P(=O)([O-])O)P(=O)(O)O (centres unmarked) [BPH-684],–,–,–,–,–,–,–,–,–,"Ki ([1]; Table 1, experimental, read-out: FPPS pKi (converted)): 0.01 µM; Ki [2]: 0.251 µM; Ki [3]: 0.1 µM; IC50 [4]: 200 µM; IC50 [5, 10]: 251 µM; IC50 [5, 11]: 129 µM; IC50 [6]: 158 µM; EC50 [7]: 126 µM"
CCCCCCCCCCCCOc1ccc[n+](CC(P(=O)(O)O)P(=O)(O)O)c1 [BPH-716],–,–,–,–,–,–,–,–,–,"γδ T cell activation EC50, times more active than Phosphostim ([7]; versus Phosphostim (bromohydrin of IPP)): ~2 ×; γδ T cell activation, times more active than the most potent conventional bisphosphonates ([7]; versus most potent conventional bisphosphonates): ~100 ×; IC50 [9]: ~0.03 µM; fold more inhibitory than zoledronate, Matrigel invasion ([9]; versus zoledronate): about 1000 fold"
CCCCCCCOc1ccc[n+](CC(P(=O)([O-])O)P(=O)(O)O)c1 (centres unmarked) [BPH-722],–,–,–,–,–,–,–,–,–,"Ki [2]: 0.0631 µM; Ki [3]: 0.00631 µM; IC50 [4]: 1 µM; IC50 [5, 10]: 2.51 µM; IC50 [5, 11]: 0.468 µM; IC50 [6]: 0.501 µM; EC50 [7]: 27.5 µM"
CC(C)CCCC(C)CCOc1ccc[n+](CC(P(=O)([O-])O)P(=O)(O)O)c1 (centres unmarked) [BPH-728],6.8,6.3,4.9,4.5,5.59,4.6,5.28,–,–,–

# Reference: patent publication US8012949B2, “Bisphosphonate compounds and methods with enhanced potency for multiple targets including FPPS, GGPPS, and DPPS” (The Board of Trustees of the University of Illinois, priority 2004, dated 2011)
